Reference: paper PMC6690930, “Characterization and its implication of a novel taste receptor detecting nutrients in the honey bee, Apis mellifera” (Scientific Reports, 2019)
Values belong to the molecule of their own block, whether it stands above or below them.

Experiments:
AmGr1 = system: AmGr1; set-up: method as in earlier work; settings: cited from earlier work
[1] = system: sensilla chaetica on the galea; assay: Tip recording from galeal sensilla chaetica of honey bee; format: in vivo, Apis mellifera; settings: for Responses during 1 sec of stimulation: sensilla chaetica on the galea; for Threshold concentration necessary for tip recording: honey bee mouthparts in vivo; for Response of sensilla chaetica on the galea (in words): tip recording
Description: Tip recording® experiments were amplified and recorded from the left galea of the proboscis in honey bee mouthparts with IDAC4 with Autospikes software (Syntech, Hilversum, The Netherlands). Bees were immobilized by cooling on ice, restrained in a pipette tip, holding head and appendages in place for electrophysiological measurements. Recordings from gustatory sensilla in galea were made from so-called sensilla chaetica[81] at the tip of galea devoid of olfactory sensilla. These sensilla can be easily identified by their external morphology. A grounded reference electrode filled with 1 mM KCl was inserted into the compound eye. L-glutamate and L-aspartate were selected for tip recording testing and are common amino acids in plant pollen. For stimulation, 1 mM KCl with […] concentrations of 100 mM and 1 mM KCl alone were used. Stimuli were applied for approximately 5 s with an inter-stimulus interval of 3 min. […] These sensilla were excluded from the data analysis. The responses of galeal sensilla to all tested solutions were quantified by counting the number of spikes after stimulus onset.

AmGr10 [2] = biological target: T1, AmGr10 (Apis mellifera, UniProt A0A7M6W8K8); assay: Calcium imaging of HEK 293 cells expressing AmGr10; format: cell-based; settings: for Real time calcium imaging response: 50 μm amino acid alone, Videos S1, S2; for Real time calcium imaging response with IMP: 50 μm amino acid with 2 μm of IMP, Videos S3, S4
Protocol: (§1) The expression vector was synthesized by inserting the cDNA of AmGr10 (Apis mellifera Gustatory receptor 10) into the multiple cloning site of the pcDNA3.1 vector using the restriction enzymes EcoRI and NotI (Koscamco, Anyang, Korea). Template pDNA for pcDNA3.1-AmGr10 and primers were then mixed with kit solutions. The total PCR volume and conditions were followed as described previously. 2.5 µg of the vector with AmGr10 was transfected into the HEK 293 cells using Lipofectamine 2000 (Invitrogen, CA, USA). The transfection method was according to the manufacturer’s manual. In brief, the Opti-MEM (Invitrogen, CA, USA) was mixed with Lipofectamine at the rate of 6 μL in 125 μL Opti-MEM. It was incubated for 5 min at room temperature. The plasmid DNA (2.5 μg) also was blended with 125 μL Opti-MEM media. These were combined and incubated for 20 min at room temperature. The solution was applied on the HEK cells. After 24 h, the transfected cells were selected using 200 µg/ml zeocin.
Transfected cell lines were subsequently cultured on dishes suitable for confocal microscopy (SPL, Pocheon, Korea). Before each experiment, the culture medium was removed and washed once in Hansk’s balanced salt solution (assay buffer). Transfected cells were loaded with calcium dye Fluo-4 AM (Molecular probes, USA), 2 μM in assay buffer to the dish, after which the cells were incubated in the dark for 90 min at room temperature. After incubation, 1X HBSS buffer was added to the confocal dish, which was then directly placed in the LSM700 inverted confocal microscope for observation (Zeiss, Oberkochen, Germany). Images were captured with a maximum of 100 frames per two-second interval. Test chemicals were dissolved in HBSS at various concentrations. Calcium influx into the transfected cells upon ligand binding was monitored and analyzed with ZEN software (Zeiss, Oberkochen, Germany). For data analysis, response refers to the number of cells responding in a field of about 300 transfected cells. Cells were counted as responders if the F ratio increased above 0.27 after addition of tastants.

hT1R1/hT1R3 = settings: cited from earlier work
AmGr10 [3] = biological target: T1, AmGr10; assay: Two-electrode voltage-clamp recording of Xenopus oocytes expressing AmGr10; format: cell-based; settings: for Response of oocytes injected with AmGr10 cRNA (in words): holding potential -70 mV; for Threshold concentration on Xenopus oocytes expressed AmGr10: in vitro
Protocol: Full-length coding sequences of the AmGr10 cDNA were first cloned into pGEM-T easy vector (Promega, Madison, USA) and then subcloned into the pSDTF vector. In vitro transcription of cRNA was performed by using the mMESSAGE mMACHINE SP6 Kit (Ambion, Austin, TX, USA) according to the manufacturer’s protocol. Plasmids were linearized with EcoR1, and capped cRNA was transcribed using SP6 RNA polymerase. The cRNA was purified, resuspended in nuclease-free water at a concentration of 1 μg/μl, and stored at −80 °C in aliquots. Mature oocytes were freed from the follicle cells by treatment with collagenase A for 1 h at room temperature and incubated for 24 hours in modified Barth’s solution[16]. […] The oocytes were then incubated at 17 °C for 3~5 days in Barth’s solution. The two-electrode voltage-clamp technique was employed to observe tastant-induced currents at a holding potential of −70 mV.

AmGr10 [4] = biological target: T1, AmGr10; assay: Intracellular calcium assay (Fluo-4) in HEK 293 cells expressing AmGr10; format: cell-based; settings: for Response of HEK 293 cells expressing AmGr10 (in words): 100 mM of amino acid
Protocol: as §1
For calcium signaling assays, HEK 293 cells expressing AmGr10 were cultured for more than 3 days, and the Fluo-4 AM dye mix solution (Molecular probes) was loaded into the cell in 96-well microplate. […] To normalize the response, the changes in the fluorescence ratio were divided by the maximal fluorescence changes induced by each compound.

human = system: human; set-up: method as in PMID 24214976; settings: at high concentrations; cited from earlier work
[5] = system: non-transfected HEK 293 cells; assay: Calcium imaging of non-transfected HEK 293 cells (control); format: cell-based; settings: Fig. S6
Protocol: Test chemicals were dissolved in HBSS at various concentrations.

AmGr3 = system: AmGr3; set-up: method as in PMID 28403157, PMID 29194737; settings: cited from earlier work

T1 sequence (A0A7M6W8K8 entry or part of it): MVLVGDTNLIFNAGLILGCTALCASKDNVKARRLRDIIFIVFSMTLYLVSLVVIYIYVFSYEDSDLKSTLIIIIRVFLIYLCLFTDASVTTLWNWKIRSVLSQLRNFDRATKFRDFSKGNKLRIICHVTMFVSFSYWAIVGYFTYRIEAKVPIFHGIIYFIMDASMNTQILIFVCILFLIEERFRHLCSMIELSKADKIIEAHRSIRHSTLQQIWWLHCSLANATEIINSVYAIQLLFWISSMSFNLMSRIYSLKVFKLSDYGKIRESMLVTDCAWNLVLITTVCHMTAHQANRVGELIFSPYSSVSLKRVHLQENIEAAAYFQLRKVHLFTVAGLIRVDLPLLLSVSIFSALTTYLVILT

Compound: OC[C@H]1O[C@H](O[C@H]2[C@H](O)[C@@H](O)C(O)O[C@@H]2CO)[C@H](O)[C@@H](O)[C@@H]1O (mixture of isomers) [maltose]
Response of AmGr1 (AmGr1): responded

Compound: Nc1nc2c(ncn2[C@@H]2O[C@H](COP(=O)(O)O)[C@@H](O)[C@H]2O)c(=O)[nH]1 [GMP, Guanosine 5′-monophosphate]
Effect of GMP on responses to non-amino acid stimulus sucrose ([1]; 2 mM GMP): no significant effect
Effect of GMP on nerve-firing rates to amino acids ([1]; 2 mM GMP, 50 mM amino acids): significantly enhanced

Compound: NC(CCP(=O)(O)O)C(=O)O [L-AP4]
AmGr10 response in presence of purine nucleotides (AmGr10 [2]; amino acids 50 mM, IMP 2 mM): greatly enhanced

Compound: C[C@H](N)C(=O)O [L-Ala]
Response of hT1R1/hT1R3 (hT1R1/hT1R3): slight but significant responses

Compound: N=C(N)NCCC[C@H](N)C(=O)O [L-arginine, L-Arginine]
Response of oocytes injected with AmGr10 cRNA (in words) (AmGr10 [3]): responsive
Response of HEK 293 cells expressing AmGr10 (in words) (AmGr10 [4]): significant responses
Response of hT1R1/hT1R3 (hT1R1/hT1R3): slight but significant responses
Umami taste in human sensory tests (human): weak umami taste

Response of oocytes injected with AmGr10 cRNA (in words) (AmGr10 [3]): responsive
Response of HEK 293 cells expressing AmGr10 (in words) (AmGr10 [4]): significant responses
Compound: NC(=O)C[C@H](N)C(=O)O [L-asparagine, L-Asparagine]
Response of hT1R1/hT1R3 (hT1R1/hT1R3): slight but significant responses
Umami taste in human sensory tests (human): weak umami taste

Response of oocytes injected with AmGr10 cRNA (in words) (AmGr10 [3]): responsive
Threshold concentration on Xenopus oocytes expressed AmGr10 (AmGr10 [3]): ~ 10 mM
Response of HEK 293 cells expressing AmGr10 (in words) (AmGr10 [4]): highest responses
Real time calcium imaging response (AmGr10 [2]): clearly showed calcium responses
Real time calcium imaging response with IMP (AmGr10 [2]): clearly showed enhanced response
Compound: N[C@@H](CC(=O)O)C(=O)O [L-aspartate, L-Aspartic acid]
Responses during 1 sec of stimulation ([1]; 100 mM): 22 spikes
Responses during 1 sec of stimulation ([1]; 200 mM): 51 spikes
Responses during 1 sec of stimulation ([1]; concentration of 50 mM): 6 spikes
Threshold concentration necessary for tip recording [1]: ~ 50 mM
Response of sensilla chaetica on the galea (in words) [1]: responded

Compound: N[C@@H](CCC(=O)O)C(=O)O [L-glutamate, L-Glutamic acid]
Responses during 1 sec of stimulation ([1]; 100 mM): 27 spikes
Responses during 1 sec of stimulation ([1]; 200 mM): 55 spikes
Responses during 1 sec of stimulation ([1]; concentration of 50 mM): 15 spikes
Threshold concentration necessary for tip recording [1]: ~ 50 mM
Response of sensilla chaetica on the galea (in words) [1]: responded
Response of oocytes injected with AmGr10 cRNA (in words) (AmGr10 [3]): responsive
Threshold concentration on Xenopus oocytes expressed AmGr10 (AmGr10 [3]): ~ 10 mM
Response of HEK 293 cells expressing AmGr10 (in words) (AmGr10 [4]): highest responses
Real time calcium imaging response (AmGr10 [2]): clearly showed calcium responses
Real time calcium imaging response with IMP (AmGr10 [2]): clearly showed enhanced response

Response of oocytes injected with AmGr10 cRNA (in words) (AmGr10 [3]): responsive
Response of HEK 293 cells expressing AmGr10 (in words) (AmGr10 [4]): significant responses
Compound: NC(=O)CC[C@H](N)C(=O)O [L-glutamine, L-Glutamine]
Response of hT1R1/hT1R3 (hT1R1/hT1R3): slight but significant responses
Umami taste in human sensory tests (human): weak umami taste

Compound: N[C@@H](Cc1c[nH]cn1)C(=O)O [L-histidine, L-Histidine]
Response of hT1R1/hT1R3 (hT1R1/hT1R3): slight but significant responses

Compound: NCCCC[C@H](N)C(=O)O [L-lysine, L-Lysine]
Response of oocytes injected with AmGr10 cRNA (in words) (AmGr10 [3]): responsive
Response of HEK 293 cells expressing AmGr10 (in words) (AmGr10 [4]): significant responses

Compound: N[C@@H](CO)C(=O)O [L-serine, L-Serine]
Response of hT1R1/hT1R3 (hT1R1/hT1R3): slight but significant responses

Compound: N[C@@H](CCC(=O)O)C(=O)[O-].[Na+] [MSG, L-Glutamic acid monosodium salt]
Response to MSG of AmGr10-transfected HEK 293 cells vs non-transfected (AmGr10 [4]; concentration steps, Fig. S5): significantly increased
Sensitivity of HEK 293 cells expressing hT1R1/hT1R3 (hT1R1/hT1R3; unlike non-transfected HEK 293 cells): significantly sensitive

Compound: Cn1c(=O)c2c(ncn2C)n(C)c1=O [caffeine]
Response of oocytes injected with AmGr10 cRNA (in words) (AmGr10 [3]): not

Compound: CNc1ccc2oc(C[C@@H]3OC4(CC[C@@H]3C)O[C@H](C(C)C(=O)c3ccc[nH]3)[C@H](C)C[C@H]4C)nc2c1C(=O)O (stereo partly drawn) [calcium ionophore]
Calcium influx in non-transfected HEK 293 cells [5]: activated

Compound: O=C(CO)[C@@H](O)[C@H](O)[C@H](O)CO [fructose]
Response of AmGr1 (AmGr1): not
Response of AmGr3 (AmGr3): responds only

Compound: OC[C@H]1OC(O)[C@H](O)[C@@H](O)[C@@H]1O (stereo partly drawn) [glucose]
Response of AmGr1 (AmGr1): responded

Compound: OC[C@H]1O[C@@](CO)(O[C@H]2O[C@H](CO)[C@@H](O)[C@H](O)[C@H]2O)[C@@H](O)[C@@H]1O [sucrose, Sucrose]
Response of sensilla chaetica on the galea (in words) [1]: sensitive
Response of AmGr1 (AmGr1): responded

Compound: OC[C@H]1O[C@H](O[C@H]2O[C@H](CO)[C@@H](O)[C@H](O)[C@H]2O)[C@H](O)[C@@H](O)[C@@H]1O [trehalose]
Response of AmGr1 (AmGr1): responded
